In experiment [1] the test system is toxin A and toxin B production by C. difficile 630. The experiment in a line: Toxin production inhibition (ELISA). It is filed as cell-based, Clostridioides difficile. Particulars: 8 hours, ELISA of supernatant, triplicate. The protocol:
After the incubation period, the bacterial count in each treatment group was determined by serial dilution and plating. Toxin content in the supernatant of each treatment group was determined using an enzyme-linked immunosorbent assay (ELISA, tgcBIOMICS) kit, as per the manufacturer’s protocol.

The test system of experiment [2] is Lactobacillus rhamnosus ATCC 53103. The experiment can be described thus: MIC gut microflora, Lactobacillus rhamnosus. It is filed as cell-based. Particulars: broth microdilution, MRS broth, 48 hours, read-out: MIC. Here is the method:
(§1) The susceptibility of gut microflora strains to the rpoA-TAT conjugate was determined using the broth microdilution assay, as described above. Briefly, bacterial suspensions of Bifidobacterium sp. and Bacteroides sp., in supplemented BHIS broth, and Lactobacilli strains, in MRS broth, were added to ultra-low adhesion 96-well plates and serially diluted. The MIC was recorded after 48 hours.
For orientation: Broth dilution looks for growth in wells or tubes with falling amounts of substance.

The next experiment relates to C. difficile 1079. The experiment in a line: MIC/MBC broth microdilution, C. difficile 1079. The conditions noted are these: for MIC: broth microdilution, anaerobic 48 hours 37°C, visual, read-out: MIC; for MBC: plated on BHIS agar, read-out: MBC. It is filed as cell-based, Clostridioides difficile. Here is the method: The susceptibility of C. difficile isolates to the CPP-PNA conjugates or to the CPP alone was determined in vitro as described before with slight modifications ([43] [–] [45]). Briefly, the CPP-PNA conjugates, the CPP alone, and the antibiotics vancomycin and fidaxomicin were added in triplicate to the first row of ultra-low adhesion 96-well plates (Corning Inc., Corning, NY). A suspension of C. difficile equivalent to 0.5 McFarland solution was added to Mueller-Hilton II broth, which was then added to the ultra-low adhesion plate and then serially diluted. The plates were incubated anaerobically for 48 hours at 37°C. The minimum inhibitory concentration was defined as the lowest concentration of the CPP-PNA conjugate that could inhibit bacterial growth when observed visually.
The MIC and MBC experiments were repeated twice.

The test system of experiment [3] is spoOA gene of C. difficile ATCC 630. The experiment in a line: RT-PCR spoOA gene expression. It is filed as cell-based. The conditions noted are these: 12 hours, qPCR. Here is the method: (§2) The antisense effect of the rpoA-TAT conjugate was evaluated using a real-time quantitative reverse-transcriptase polymerase chain reaction (RT-PCR) assay ([11], [12]). Briefly, an overnight culture of C. difficile ATCC 630 was diluted in fresh Mueller-Hilton broth II and added in triplicate to low-adhesion microcentrifuge tubes. […] The tubes were incubated anaerobically at 37°C for 12 hours following which the bacterial pellet in each treatment group was collected by centrifugation at 10,000 × g for 10 minutes. Bacteria were subsequently lysed with recombinant lysostaphin (100 µg/mL) in Tris-EDTA (TE) buffer (1 mol/L Tris, 0.5 mol/L ethylenediaminetetraacetate pH 8, nuclease-free H20), and total RNA was extracted using the TRIzol Max Bacterial Isolation Kit as per the manufacturer’s instructions. Turbo DNAse was used to remove genomic DNA contamination from each sample as per the protocol. cDNA was synthesized using the SuperScript III First-Strand Synthesis Kit as per the manufacturer’s instructions. The relative quantification of cDNA for each treatment group was determined using the iTaq Universal SYBR Green One-Step Kit and CFX96 Real-Time PCR Detection System per the manufacturer’s instructions.
(§3) The constitutively expressed tpi gene was used as an internal control. Real-time RT-PCR results were analyzed using the 2^-ΔΔCT method.
In general terms: In qPCR the cycle at which signal appears reflects the starting amount.

In experiment [4] the test system is rpoA gene (RNA polymerase α subunit) of C. difficile ATCC 630. The experiment can be described thus: RT-PCR rpoA gene expression. It is filed as cell-based, Clostridioides difficile. Particulars: 12 hours, qPCR. Here is the method:
as §2, §3

Experiment [5] concerns toxin B (tcdB) gene of C. difficile ATCC 630. The experiment in a line: RT-PCR toxin B (tcdB) gene expression. It is filed as cell-based, Clostridioides difficile. Particulars: 12 hours, qPCR. Here is the method:
as §2, §3

Experiment [6] has as its system toxin A (tcdA) gene of C. difficile ATCC 630. The experiment in a line: RT-PCR toxin A (tcdA) gene expression. It is filed as cell-based, Clostridioides difficile. The conditions noted are these: 12 hours, qPCR. The protocol: as §2, §3
Experiment [7] relates to gut microflora strains (Lactobacillus sp., Bacteroides sp., and Bifidobacterium sp.). The experiment in a line: Growth inhibition of representative gut microflora strains (summary). It is filed as cell-based. The conditions noted are these: broth microdilution, 48 hours. Here is the method: as §1

In brackets after ≈: the same amount, converted by molar mass. Like-named read-outs stand apart in the source and are kept apart here.

Data on two molecules can be found in PMC10581251, “Antisense inhibition of RNA polymerase α subunit of Clostridioides difficile” (Microbiology Spectrum, 2023).

In the case of `CCc1c(Cl)c(O)c(Cl)c(O)c1C(=O)O[C@H]1[C@H](O)[C@H](OC)[C@H](OC/C2=C\C=C\C[C@H](O)/C(C)=C/[C@H](CC)[C@@H](O[C@@H]3OC(C)(C)[C@@H](OC(=O)C(C)C)[C@H](O)[C@@H]3O)/C(C)=C/C(C)=C/C[C@@H]([C@@H](C)O)OC2=O)O[C@@H]1C` [Fidaxomicin, fidaxomicin], the “reduction of C. difficile toxin production” value in experiment [1] (0.125× MIC) is recorded as 45.7%; in experiment [1] (0.25× MIC) it was 50.6%; in experiment [1] (0.5× MIC), 54%. The minimal inhibitory concentration (MIC) in experiment [2] (Lacticaseibacillus rhamnosus, ATCC53103) is greater than 2 µM; in the experiment with C. difficile 1079 (Clostridioides difficile, 1079), 2 µM (≈ 2.12 µg/mL). In addition, the MBC with C. difficile 1079 (Clostridioides difficile, 1079) was determined as 2 µM (≈ 2.12 µg/mL).

Turning to “GRKKKRRQRRRYK-O-CATGGACAAAAC-NH2 [rpoA-TAT, PNA oligomer antisense to C. difficile rpoA covalently conjugated to the TAT cell penetrating peptide]”, the entries for the “reduction of spoOA gene expression” value in experiment [3] (0.125× MIC (1 µM)), in experiment [3] (0.25× MIC (2 µM)) and in experiment [3] (0.5× MIC (4 µM)) were 45.2%, 58.4% and 68.5%, respectively. Also, the “reduction of C. difficile toxin production” value in experiment [1] (0.125× MIC) stood at 34.9%; in experiment [1] (0.25× MIC), 54.3%; in experiment [1] (0.5× MIC), 55.2%. Besides, the minimal inhibitory concentration (MIC) was greater than 32 µM in experiment [2] and 8 µM in the experiment with C. difficile 1079. In addition, the “reduction of rpoA gene expression” value in experiment [4] (0.125× MIC (1 µM), tpi internal control) was 34%; in experiment [4] (0.25× MIC (2 µM)) it was 46.3%; in experiment [4] (0.5× MIC (4 µM)), 78.2%. In addition, the results for the “reduction of toxin B (tcdB) gene expression” value in experiment [5] (0.125× MIC (1 µM)), in experiment [5] (0.25× MIC (2 µM)) and in experiment [5] (0.5× MIC (4 µM)) were 26%, 51.2% and 74.5%, respectively. In addition, the “reduction of toxin A (tcdA) gene expression” value amounted to 41.3% in experiment [6] (0.125× MIC (1 µM)), 50.7% in experiment [6] (0.25× MIC (2 µM)) and 71.2% in experiment [6] (0.5× MIC (4 µM)). In experiment [7], the “concentration without growth inhibition of gut microflora strains” value is recorded as greater than 32 µM. In addition, the MBC with C. difficile 1079 stood at 8 µM.

The MIC is the lowest concentration that inhibits growth of the organism. The MBC is the smallest concentration meeting the test's criterion for killing.
